The values below come from patent US20220370366A1, “TABLETS CONTAINING CILOFEXOR AND PHARMACEUTICALLY ACCEPTABLE CARRIERS” (Gilead Sciences, Inc., priority 2019, published 2022).

The conditions of data set [1]: in the drug product, Form I.
A short description of data set [2]: Single dose PK (AUCinf) in Phase 1 studies, effect of drug load on Compound 1 exposure and variability. The note with it: for AUC(0-inf): human, in vivo, oral, fasted, healthy volunteers, read-out: Mean (% CV) Compound 1 AUCinf. Type of data set: in vivo, human. An excerpt:
Part A: prespecified cohorts (Cohorts 1-3): Randomized, partially blind, placebo-controlled, single- and multiple-doses with staggered dose-escalations. 60 unique subjects; 15 per cohort (12 Compound 1, 3 placebo-to-match (“PTM”))
Part A (Single- and Multiple-Ascending Doses, Pre-Specified Cohorts) proceeded in 4 staggered, pre-specified, dose-escalation cohorts and were governed by study specific stopping criteria. Within each cohort, 15 unique subjects were randomized 4:1 to receive blinded Compound 1 (N=12) or PTM (N=3). All study drugs in Part A were administered in a fasted state. Within each cohort, dose escalation from single-dose (Period 1) to multiple-dose (Period 2) were permitted after evaluation of cumulative blinded safety data up to and through Day 3 of the same cohort.
Fasted State Dosing: Study drug(s) were administered at approximately the same time each day following an overnight fast (no food or drinks except water, for at least 10 hours). Subjects continued to fast until after collection of the 2-hour PK sample, relative to study drug dosing.
(§1) Treatment A: Single dose of SEL 18 mg (1×18 mg tablet)+Compound 1 30 mg (1×30 mg tablet) coadministered orally in the morning within 5 minutes of completing a high-fat meal Treatment C: Single dose of Compound 1 30 mg (1×30 mg tablet) administered orally in the morning in the fasted state
(§2) Fasted Administration (Treatment C): Study drug(s) were administered in the morning following an overnight fast (no food or drinks except water for at least 10 hours). Subjects continued to fast until after collection of the 4-hour PK sample, relative to (first) study drug dosing. Additionally, subjects were restricted from water consumption 1 hour before until 2 hours after each study drug dosing, except for the 240 mL given with each study drug administration. Water may be consumed by subjects following the 2-hour blood draw for the remainder of the collection period. A meal (standardized lunch) was provided to subjects after the 4 hour postdose blood draw.
Eligible subjects received the following treatment: Single dose of 100 mg Compound 1 (1×100 mg tablet), administered orally in the morning on Day 1 following an overnight fast.
Each dose of study drug was administered in the morning on Day 1 with 240 mL of still (non-carbonated) water following an overnight fast (no food or drinks except water, for at least 10 hours). Subjects continued to fast and were restricted from food intake until after collection of the 4-hour blood draw. Additionally, subjects were restricted from consumption of water or other fluids 1 hour before until 2 hours after dosing, except for the 240 mL given with the study treatment.
Cohort 10 (Compound 1 100 mg, formulation 9 in Table 3):
Treatment F: Single dose of Compound 1 (1×100 mg tablet) administered orally in the morning in the fasted state.
Compound 1 was administered in the morning following an overnight fast (no food or drinks except water for at least 10 hours). Subjects continued to fast until after collection of the 4-hour PK sample, relative to the (first) study drug dosing. Additionally, subjects were restricted from water consumption 1 hour before until 2 hours after each study drug dosing, except for the 240 mL given with each study drug administration. Water was optionally consumed by subjects following the 2-hour blood draw for the remainder of the collection period. A meal (standardized lunch) is provided to subjects after the 4-hour post-dose blood draw.
Single dose pharmacokinetic exposure parameters (AUCinf) of Compound 1 from multiple Phase 1 studies in healthy volunteers which utilized various drug loads of Compound 1 were compared to determine if Compound 1 drug load impacted the variability and/or absolute value of Compound 1 systemic exposure.

The nature of data set [3]: Single dose PK (AUCinf) in Phase 1 studies, effect of meal type on Compound 1 exposure and variability. Type of data set: in vivo, human. The note with it: for AUC(0-inf): human, in vivo, oral. As for the experimental part: Part B (Adaptive Cohorts) is as follows: Based on available safety, pharmacokinetic (“PK”), and/or pharmacodynamic (“PD”) data from Part A, total daily doses for Part B (Cohorts 5 and 8) were chosen between 1 and 600 mg as well as frequency of dosing (once daily or twice a day) and meal conditions for dosing (fasted, low fat, moderate fat, or high fat meal). Once determined, dose level, frequency of dosing, and meal conditions were consistent within a cohort.
Fed State Dosing: Study drug(s) were administered at approximately the same time each day and within 5 minutes of completing a standardized meal. The meal was initiated 30 minutes prior to study drug administration. Subjects fasted until after collection of the 4-hour PK sample, relative to study drug dosing. Meal fat content (low fat, moderate fat, or high fat) was determined based on available data from […] cohorts.
as §1
Treatment I: Single dose of Compound 1 30 mg (1×30 mg tablet) administered orally in the morning within 5 minutes of completing a light meal
as §2
Light Meal Administration (Treatment I): Study drug(s) were administered with food and with 240 mL of water. Following an overnight fast (no food or drinks except water for at least 10 hours), a meal was initiated 30 minutes prior to study drug administration. The dose was administered at or within 5 minutes of the subjects completing (100%) of the provided light meal containing ˜400 kcal with ˜20% of the calories from fat. Subjects fasted for 4 hours after study drug administration. A meal (standardized lunch) was provided to subjects after the 4-hour post-dose blood draw. Additionally, water and other fluids was withheld 1 hour before until 2-hours after dose administration other than the water provided with dosing and beverages provided with the standardized meal (where applicable). Water may be consumed by subjects following the 2-hour blood draw for the remainder of the collection period.
High-Fat Meal Administration (Treatment A): Study drug(s) were administered with food and with 240 mL of water. Following an overnight fast (no food or drinks except water for at least 10 hours), a meal was initiated 30 minutes prior to study drug administration. The dose was administered at or within 5 minutes of the subjects completing (100%) of the provided high-fat meal containing ˜800-1000 kcal with -50% of calories from fat (approximately 150, 250, and 500-600 kcal from protein, carbohydrate, and fat, respectively). Subjects fasted for 4 hours after study drug administration. A meal (standardized lunch) was provided to subjects after the 4-hour post-dose blood draw. Additionally, water and other fluids was withheld 1 hour before until 2 hours after dose administration other than the water provided with dosing and beverages provided with the standardized meal (where applicable). Water may be consumed by subjects following the 2-hour blood draw for the remainder of the collection period.
Cohort 10 (Compound 1 100 mg, formulation 9 in Table 3): […]

Data set [4] is described as follows: Effect of acid-reducing agent (famotidine) on PK of Compound 1 single agent tablet, Cohort 11. The note with it: for AUC(0-inf): human, in vivo, oral, fasted, N=20. Type of data set: in vivo, human. How it is done:
The objective of Cohort 11 was to assess the effect of gastric acid reducing agents (ARAs) on the PK of Compound 1 single agent tablet using famotidine, a representative H2RA. Compound 1 100 mg strength tablets (as free form equivalent) were used. Famotidine was obtained from a commercially available source.
Treatment J: Single dose of Compound 1 (1×100 mg tablet) administered orally in the morning in the fasted state.
Treatment K: Single dose of Compound 1 (1×100 mg tablet) administered orally in the morning 2 hours after famotidine (FAM) (1×40 mg) in the fasted state.
Study drug(s) were administered in the morning following an overnight fast (no food or drinks except water for at least 10 hours). Subjects continued to fast until after collection of the 4-hour PK sample, relative to the (first) study drug dosing. Additionally, subjects were restricted from water consumption 1 hour before until 2 hours after each study drug dosing, except for the 240 mL given with each study drug administration. Water was optionally consumed by subjects following the 2-hour blood draw for the remainder of the collection period.

The mark [5] stands for this setting: drug loads such as 5% and 8% compared to 20% drug load.

For `NC(CO)(CO)CO.O=C(O)c1ccnc(N2CC(O)(c3ccc(OCc4c(-c5c(Cl)cccc5Cl)noc4C4CC4)cc3Cl)C2)c1` [tromethamine salt of Compound 1], the “Chemical and physical stability” value in data set [1] was “suitable chemical and physical stability”.
As to `O=C(O)c1ccnc(N2CC(O)(c3ccc(OCc4c(-c5c(Cl)cccc5Cl)noc4C4CC4)cc3Cl)C2)c1` [Compound 1, cilofexor], the “Compound 1 exposure” value in data set [2] (setting [5]) was “increased Compound 1 exposure”. Also, the “Variability of Compound 1 exposure” value is “reduction in variability” in data set [2] (setting [5]); “did not reduce variability” in data set [3] (light-fat meal); “reduced the variability” in data set [3] (moderate- and high-fat meals compared to fasted administration, irrespective of % drug load). The AUC(0-inf) came out at 2470 ng·h/mL in data set [2] (30 mg, 30 mg single dose, 5% drug load); 1870 ng·h/mL in data set [2] (30 mg, 30 mg single dose, 20% drug load); 7480 ng·h/mL in data set [2] (100 mg, 100 mg single dose, 8% drug load); 7650 ng·h/mL in data set [2] (100 mg, 100 mg single dose, 12% drug load); 7740 ng·h/mL in data set [2] (100 mg, 100 mg single dose, 20% drug load); 1260 ng·h/mL in data set [3] (10 mg, 10 mg (5% drug load), fasted, N=12, read-out: Compound 1 AUCinf (% CV) Fasted). Besides, the AUC(0-inf) in data set [3] (10 mg, 10 mg (5% drug load), moderate-fat meal, N=11, read-out: Compound 1 AUCinf (% CV) Fed) amounted to 924 ng·h/mL; in data set [3] (30 mg (20% drug load), high-fat meal, + SEL 18 mg, N=20, read-out: Compound 1 AUCinf (% CV) Fed), 1920 ng·h/mL; in data set [3] (30 mg, 30 mg (20% drug load), fasted, N=20, read-out: Compound 1 AUCinf (% CV) Fasted) it was 1870 ng·h/mL; in data set [3] (30 mg, 30 mg (20% drug load), light-fat meal, N=30, read-out: Compound 1 AUCinf (% CV) Fed), 608 ng·h/mL; in data set [3] (100 mg, 100 mg (12% drug load), fasted, N=20, read-out: Compound 1 AUCinf (% CV) Fasted), 7650 ng·h/mL; in data set [3] (100 mg, 100 mg (12% drug load), high-fat meal, N=20, read-out: Compound 1 AUCinf (% CV) Fed), 5930 ng·h/mL. Moreover, the AUC(0-inf) turned out to be 4170 ng·h/mL in data set [3] (100 mg, 100 mg (12% drug load), light-fat meal, N=20, read-out: Compound 1 AUCinf (% CV) Fed); 7740 ng·h/mL in data set [3] (100 mg, 100 mg (20% drug load), fasted, N=12, read-out: Compound 1 AUCinf (% CV) Fasted); 5020 ng·h/mL in data set [3] (100 mg, 100 mg (20% drug load), moderate-fat meal, N=12, read-out: Compound 1 AUCinf (% CV) Fed); 13600 ng·h/mL in data set [4] (100 mg (12% drug load), 2 hours after famotidine 40 mg, read-out: Compound 1 AUCinf (% CV) with Famotidine (Test)); 4490 ng·h/mL in data set [4] (100 mg (12% drug load), read-out: Compound 1 AUCinf (% CV) Alone (Reference)). Moreover, the “% GLSM Ratio (90% CI)” value in data set [3] (10 mg (5% drug load), AUCinf moderate-fat meal vs fasted) is recorded as 74.9%; in data set [3] (30 mg (20% drug load), AUCinf high-fat meal (+ SEL 18 mg) vs fasted) it was 142%; in data set [3] (30 mg (20% drug load), AUCinf light-fat meal vs fasted), 37.5%; in data set [3] (100 mg (12% drug load), AUCinf high-fat meal vs fasted) it was 91.9%; in data set [3] (100 mg (12% drug load), AUCinf light-fat meal vs fasted), 65.7%; in data set [3] (100 mg (20% drug load), AUCinf moderate-fat meal vs fasted) it was 76.6%. Also, the “% GLSM Ratio (90% CI)” value in data set [4] (100 mg (12% drug load), AUCinf with famotidine vs alone) is listed as 320 (263, 390) %. Besides, the “Effect of food on Compound 1 exposure” value is listed as “increasing” in data set [3] (high-fat meal); “reducing” in data set [3] (light-fat and moderate-fat meals). In addition, the “Paired comparison of Compound 1 exposure, percent change with high-fat meal” value in data set [3] (subjects with low exposure fasted or with light-fat meal vs subjects with high exposure) is listed as “greater percent increases in exposure”. For the same compound, the “Bioavailability of Compound 1 with famotidine pre-treatment” value in data set [4] (administered two hours after famotidine, 12% drug load) is reported as “increase in bioavailability”.
